Key:
hypertensive rats = assay: hypotensive activity: blood pressure of hypertensive rats after peroral administration; assay type: in vivo; conditions: Rattus norvegicus, po, read-out: Peroral Dose: lowest dose which results in at least a 15 mm Hg reduction in blood pressure
Text: The hypotensive activity of the present compounds can be observed by measuring the blood pressure of hypertensive rats following administration of the compounds.

[1] = toxicity (LD50) measured on mice by peroral administration; conditions: mouse, in vivo, po
coronary vessels = assay: coronary vessel dilation: rise in oxygen saturation in the coronary sinus in the narcotized, heart-catheterized dog; assay type: in vivo; conditions: intravenous
Text: They can accordingly be used where either or both of these effects are desired. Thus upon parenteral, oral or sublingual administration, the compounds produce a distinct and long lasting dilation of the coronary vessels which is intensified by a simultaneous nitrite-like effect of reducing the load on the heart. […] The effect on heart metabolism is thus one of energy saving. In addition, the compounds lower the blood pressure of normotonic and hypertonic animals and can thus be used as antihypertensive agents. These properties can be conveniently observed in well known laboratory models. Thus, for example, the coronary vessel dilation effect of the compounds of the invention was compared with the action of Persantin by measuring the rise in oxygen saturation in the coronary sinus in the narcotized, heart-catheterized dog, with the results reported in Table I, below.
^1 Dose given in mg/kg. body weight, administered intravenously;
^2 O2 rise given as % rise in oxygen saturation;
^3 Reversion time given is time in hours for reversion to the initial

**Q.** Which minimal effective dose (hypertensive rats) does the source give for `CCOC(=O)C1=C(C)N(C)C(C)=C(C(=O)OC)C1c1cccc([N+](=O)[O-])c1` (centres unmarked) [Example 1, 1,2,6-trimethyl-4-(3'-nitrophenyl)-1,4-dihydropyridine-3,5-dicarboxylic acid 3-methyl-ester-5-ethyl-ester] here?
**A.** 0.3 mg/kg

**Q.** What about the LD50 [1] of the same compound?
**A.** 3000 mg/kg

**Q.** For `COC(=O)C1=C(C)N(C)C(C)=C(C(=O)OC(C)C)C1c1cccc([N+](=O)[O-])c1` (centres unmarked) [Example 2, 1,2,6-trimethyl-4-(3'-nitrophenyl)-1,4-dihydropyridine-3,5-dicarboxylic acid 3-methyl-ester-5-isopropyl-ester], which “O2 % Rise (rise in oxygen saturation in the coronary sinus)” value (“O2 % Rise” for short) (coronary vessels; 0.01 mg/kg) is on record?
**A.** 31%

**Q.** What about the “Reversion time (to the initial value)” value (coronary vessels; 0.01 mg/kg) of the same compound?
**A.** > 3.5 h

**Q.** And the minimal effective dose (hypertensive rats)?
**A.** 1 mg/kg

**Q.** What about the LD50 [1] of the same compound?
**A.** 3000 mg/kg

**Q.** What does the source list for `CCOC(=O)C1=C(C)N(C)C(C)=C(C(=O)OC(C)C)C1c1cccc([N+](=O)[O-])c1` (centres unmarked) [Example 3, 1,2,6-trimethyl-4-(3'-nitrophenyl)-1,4-dihydropyridine-3,5-dicarboxylic acid 3-ethyl-ester-5-isopropyl-ester]?
**A.** O2 % Rise (rise in oxygen saturation in the coronary sinus) (coronary vessels; 0.1 mg/kg): 39%; Reversion time (to the initial value) (coronary vessels; 0.1 mg/kg): > 6 h; minimal effective dose (hypertensive rats): 0.3 mg/kg; LD50 [1]: 3000 mg/kg

**Q.** For `C=CCOC(=O)C1=C(C)N(C)C(C)=C(C(=O)OCC)C1c1ccccc1C#N` (centres unmarked) [Example 6, 1,2,6-trimethyl-4-(2'-cyanophenyl)-1,4-dihydropyridine-3,5-dicarboxylic acid 3-ethyl-ester-5-allyl-ester], which “O2 % Rise” value (coronary vessels; 0.05 mg/kg) is on record?
**A.** 39%

**Q.** What about the “Reversion time (to the initial value)” value (coronary vessels; 0.05 mg/kg) of the same compound?
**A.** > 4 h

**Q.** And the minimal effective dose (hypertensive rats)?
**A.** 0.3 mg/kg

**Q.** For `OCCN(CCO)c1nc(N2CCCCC2)c2nc(N(CCO)CCO)nc(N3CCCCC3)c2n1` [Persantin, reference compound], which “O2 % Rise” value (coronary vessels; 0.3 mg/kg) is on record?
**A.** 23%

**Q.** What about the “Reversion time (to the initial value)” value (coronary vessels; 0.3 mg/kg) of the same compound?
**A.** 1 to 2 h

**Q.** And the “O2 % Rise” value (coronary vessels; 0.4 mg/kg)?
**A.** 34%

**Q.** And the “Reversion time (to the initial value)” value (coronary vessels; 0.4 mg/kg)?
**A.** 1 to 2 h

Reference: US3933834A, “Unsymmetrical esters of N-substituted 1,4-dihydropyridine 3,5-dicarboxylic acid” (Bayer Aktiengesellschaft, priority 1972, dated 1976)
